From US20020098509A1, “Method for the quantitative determination of reversible acting inhibitors of the oxidoreductases” (priority 1995, published 2002)
Read-outs that look alike come from different tables or passages of the source.

What was measured:
sarcosine oxidase [1] = test: Stirred vessel system, initial gradient of oxygen or hydrogen peroxide signal; type: biochemical; conditions: for effect of substrate concentration on inhibition of the sarcosine oxidase, FIG. 16: 0.1 g/l sarcosine compared to 1.0 g/l sarcosine
Text: In contrast to the FIA system the stirred vessel system is a discontinuous process. In order to perform a measurement all necessary reaction partners are brought into the reaction chamber of the stirred vessel system and the course of reaction is been monitored by the appropriate detectors during a fixed time period. Afterwards the whole reaction mixture is removed. Then a new measurement can be done.
The reaction mixture of the stirred vessel system in FIG. 11 consists of the sample, substrate, buffer solution and enzyme. Here, the sample and the enzyme are added one after another and the sample itself containing the analyte, acetic acid for instance, in different concentrations. […] The result of the measurement is calculated from the initial gradient of the signal.
During the calibration via the initial gradient samples of different analyte concentration are added and the relating initial inclines are drawn into the chart in dependence of the analyte concentration (see FIGS. 12, 13 and 14). The sample containing the unknown analyte concentration is added to the reaction mixture in the same manner and is determined by using the initial incline which is compared to the calibration curve.

sarcosine oxidase [2] = conditions: for inhibition of the sarcosine oxidase activity, FIG. 10: sarcosine oxidase 100 U
Text: In FIA systems an injected volume of the sample is transported to the detector by a continuous moving, not segmented carrier or transport flow via a mixing and reaction line. Meanwhile, the injected sample zone is broadened (dispersion) and reacts with the ingredients of the carrier flow. As a result of the chemical conversion, the changes in concentration of the participating components lead to a change of signal at the detector, which is characteristic for the concentration of the determined substance of the injected sample. In FIG. 1 the analyte (acetic acid) as well as the substrate (sarcosine) are injected as a sample into the carrier flow consisting of the working buffer. The mixing and reacting line contains the immobilized enzyme sarcosine oxidase, which reacts with the analyte and the substrate of the sample. The decrease of oxygen or the production of hydrogene peroxide is measured by means of an oxygen or hydrogene peroxide electrode. A typical measuring signal is reproduced in FIG. 2. The peak high H or surface S is proportional to the concentration of the sample. When calibrating via the peak heights, samples of different analyte concentrations are injected and the resulting peak heights in dependence of their analyte concentrations are drawn into a chart (FIG. 3). The sample of unknown analyte concentration is injected in the same manner and can be determined via the peak height with the help of the calibration curve. In FIG. 4 the substrate is added to the buffer solution and calibration is done by injecting the analyte. Again the analysis of the unknown sample can be be done by using the calibration curve as described in FIG. 5.

Compound	effect of substrate concentration on inhibition of the sarcosine oxidase, FIG. 16 (sarcosine oxidase [1])	amount of inhibition of the sarcosine oxidase (relative initial incline versus analyte concentration), FIG. 15 (sarcosine oxidase [1]; comparison of analytes, acetate and propionate as reference curves)	inhibition of the sarcosine oxidase activity, FIG. 10 (sarcosine oxidase [2]; 0.25 g/l respectively 0.5 g/l sarcosine)	inhibition of the sarcosine oxidase activity, FIG. 10 (sarcosine oxidase [2]; 1 g/l or 2 g/l sarcosine)	inhibitor strength (inhibition of the measuring system), FIG. 7 (sarcosine oxidase [2]; substances arising in biotechnological media, maximum concentration 0.1 mol/l)
CC=O [acetaldehyde]	only slightly influenced	lower			
CC(=O)O [acetate]	substantial higher inhibition		a considerable amount of inhibition	only a small amount of inhibition	quite strong
CCC(=O)O [propionate]	substantial higher inhibition				
